Reference: a melting point compilation (Tetko et al.; mined from patent text by program, amines drawn as free bases though some values may be those of a salt)

Row | Structure (SMILES) | melting point [°C]
1 | CCn1cc(C(=O)O)c(=O)c2cc(F)c(N3CCNCC3)c(OC)c21 | 169
2 | CN(C)C(=O)C1CC2CCC1c1[nH]c3ccccc3c12 (stereo not given) | 231 to 232
3 | O=C(N=c1sc2cc(OC(F)(F)F)ccc2n1CCN1CCN(c2ccccn2)CC1)C(F)(F)F | 132
4 | Cc1ccc(C2CCN(CCc3c(C)[nH]c4ccccc34)CC2)cc1 | 192 to 194
5 | CNC(=S)NCc1ccc(Br)nc1 | 117 to 118
6 | CCn1c2ccccc2c2cc(NC(=S)NNC(C)=O)ccc21 | 197 to 199
7 | CCc1cc(Cl)c(NN)c(Cl)c1 | 48 to 50
8 | CCCCCCC1(CCCCCC)c2ccccc2-c2ccccc21 | 31 to 33
9 | O=C(O)c1c(Cl)c(Cl)c(Cl)c(Cl)c1C(=O)Nc1ccc(S(=O)(=O)C(F)(F)F)cc1 | 92 to 97
10 | COc1cc2ncnc(N3CCN(C(=S)NCc4ccc([N+](=O)[O-])cc4)CC3)c2cc1OC | 214 to 216
11 | CC(C)(C)C(=O)C(O)NC(=O)c1ccc(Cl)cc1 (stereo not given) | 130
12 | Cc1c(S(=O)(=O)Nc2ccc3[nH]cc(CCN(C)C)c3c2)sc2ccc(Cl)cc12 | 226 to 227
13 | COC(=O)c1c(S(N)(=O)=O)c(C)nn1-c1ccccn1 | 170 to 172
14 | FC(F)(F)COc1ccc(Cc2ccncc2)cc1 | 51 to 53
15 | COn1c(C(C)C)nc2c(N)nc3ccccc3c21 | 217 to 219
16 | N#Cc1cc(C=O)cnc1Cl | 96
17 | O=C(c1cc(N2CCC(N3CCCC3)CC2)ccn1)N(O)Cc1ccccc1 | 135 to 140
18 | CCOC(=O)C(Cl)(Cl)CCCCCCCCCCCCS(=O)(=O)c1ccccc1 | 69 to 71
19 | CCOCc1nc2c(N)nc3cccnc3c2n1CC(C)(C)NC(=O)C(C)C | 154 to 156
20 | CCCNC(=S)N1CCc2[nH]cnc2C1 | 151
21 | COc1sc(S(=O)(=O)C[N+](=O)[O-])cc1Br | 120 to 121

Row | Structure (SMILES) | melting point [°C]
22 | CCOC(=O)CNC(=O)c1nc2ccc(Cl)nn2n1 | 175 to 177
23 | CC(=O)S[C@@H](CC1CCCCC1)C(=O)O | 159 to 161
24 | CC1=CC(=O)CC(c2cccc(Cl)c2)N1C (stereo not given) | 82
25 | CCOC(=O)N1CCC(Nc2nccc(Oc3ccc(NC(=O)c4cc(F)cc(N5CCOCC5)c4)c4ccccc34)n2)CC1 | 122 to 124
26 | NC(CC(=O)NC1CC1)C1CC1 (stereo not given) | 116 to 118
27 | CC1(C)Oc2cc([N+](=O)[O-])sc2C(N2CCCCC2=O)C1O (stereo not given) | 158
28 | CC(C)CC(NC(=O)Cc1ccc(NC(=O)Nc2ccccc2F)cc1)c1ncc(CCC(=O)O)s1 (stereo not given) | 83 to 85
29 | O=C(Nc1ccc(C(F)(F)F)cc1)Nc1ccc2[nH]c(C(F)(F)F)nc2c1 | 223 to 228
30 | CC(C)(C)OC(=O)N1CCC(Oc2ccc(-c3ccc(=O)[nH]n3)c(F)c2)CC1 | 117 to 119
31 | NCc1[nH]c2ccc(Cl)cc2c1-c1c(F)cccc1F | 199 to 200
32 | CC(C)C[C@H](NC(=O)OCC1CCCCC1)C(=O)N[C@@H](C(C)C)[C@@H](O)c1c(-c2ccc(F)cc2)c1=O | 86 to 90
33 | FC(F)(F)c1cccc(CSc2nc3cnccc3[nH]2)c1 | 148 to 150
34 | CCOC(=O)C1=COc2ccc(OC(C)=O)cc2O1 | 66
35 | Cc1cc(-c2cc(COS(C)(=O)=O)c(=O)n(CC(C)C)n2)ccc1F | 115 to 117
36 | COC(=O)Cc1c(NC(C)=O)n(C)c2ccccc12 | 126 to 128
37 | CC12CCC(=O)C=C1CCC1C3CC(OCCO)C(O)(C(=O)CO)C3(C)CC(O)C12F (stereo not given) | 162 to 165
38 | CC(C)(C)OC(=O)NC(C(=O)Nc1n[nH]c(=S)s1)c1ccccc1 (stereo not given) | 194 to 195
39 | COc1cccc2cc(CNCCNC(=O)C34CC5CC(CC(C5)C3)C4)oc12 | 105 to 110
40 | Nc1c(F)c(N2CCNCC2)c(F)c2c1c(=O)c(C(=O)O)cn2C1CC1 | 257 to 259
41 | COC(=O)CC(=O)C[C@H]1NC(=O)[C@@H]1N1C(=O)c2ccccc2C1=O | 116 to 120
42 | Cc1sc(N)c(C(=O)c2cccs2)c1C | 117 to 118

Further lines, results first:

Row | melting point [°C] | Structure (SMILES)
43 | 100 to 103 | CO[C@@H]1OC(C)(C)O[C@@]1(C)c1cccc(OCc2ccc3ccccc3c2)c1 (racemic)
44 | 151 | CC1CCCC(C)N1S(=O)(=O)N[C@@H](Cc1ccc(Oc2nccc3cnccc23)cc1)C(=O)O (stereo not given in full)
45 | 220 to 221 | COc1ccc(COc2ccc(OC)c(Cc3cnc(N)nc3N)c2)cc1
46 | 158 to 162 | COc1ccc2c(c1)CCC(c1ccccc1)=C2c1ccc(O)cc1
47 | 205 to 207 | Nc1ccccc1NC(=O)c1cc2cc(OCc3ccccn3)ccc2s1
48 | 128 to 130 | Cc1ccc(-c2ccc3c(c2)C=C(C(=O)NC2CCN(CC4=CCCCCCCC4)CC2)CCO3)cc1
49 | 184 to 187 | O=C(c1ccccc1)C(c1cccc2ccccc12)P(=O)(O)O (stereo not given)
50 | 104 to 116 | COC(=O)C[C@H](O)CC(=O)C=Cc1c(-c2ccc(F)cc2)c(-c2ccc(F)cc2)c(C(=O)NCc2cccc(OC)c2)n1C(C)C
51 | 161 to 163 | c1ccc(CN2CCc3[nH]c4cccc(-c5ccccc5)c4c3CC2)cc1
52 | 92 to 95 | COC(=O)c1ccc(/C=C(\C)c2ccc3c(c2)C(C)(C)CCO3)cc1
53 | 126 to 127 | CC1(C)Cc2nc(C3CC3)c(Cc3ccc(C(F)(F)F)cc3)c(-c3ccc(F)c(F)c3)c2C(O)C1 (stereo not given)
54 | 142 to 143 | c1ccc(COc2cccc(Nc3nnc(Cc4ccncc4)c4ccccc34)c2)cc1
55 | 126 to 144 | CCOC(=O)/C(=N\OCCN)c1csc(NC(c2ccccc2)(c2ccccc2)c2ccccc2)n1
56 | 147 to 148 | COc1cc(Br)c(Nc2nc(C)nc(-c3ccccc3C(F)(F)F)c2[N+](=O)[O-])c(OC)c1
57 | 107 | Cc1ccc(S(=O)(=O)N2CCCC2c2cccc(Cl)c2)cc1 (racemic)
58 | 143 | Cc1cc(Oc2ccc([N+](=O)[O-])cc2)c2ncccc2c1
59 | 163 to 164 | CC(Cc1ccc(-c2ncc(NC(=O)C(F)(F)F)o2)cc1)N1CC(c2cccc(Cl)c2)OC1=O (stereo not given)
60 | 155 to 158 | CS(=O)(=O)Oc1ccc(-c2c3ccccc3c(Cl)c3sc4ccccc4c23)cc1
61 | 66 | COC[C@@H]1CCCN1S(=O)(=O)c1ccc(Cl)c(COc2cccc3c(-n4ccnc4)cc(C)nc23)c1Cl
62 | 197 to 200 | CCn1ncc2c(OC)c3c(nc21)C(=O)c1ccccc1CC3
63 | 261 to 264 | COc1ccc2c(c1)c1c3c(c(-c4c(Cl)cccc4Cl)cc1n2CCC(N)=O)C(=O)NC3=O
64 | 89 | CC(C)(C)C1=C(O)C(=O)c2ccccc2C1=O
65 | 136 to 137 | COc1ccc(CSc2nnc(-c3ccc4c(c3)CCO4)o2)cc1Cl
66 | 141 to 143 | CCCCc1ncc(CNC(Cc2ccccc2)C(=O)O)n1Cc1ccccc1Cl (stereo not given)
67 | 93 to 95 | CCOC(=O)C=Cc1cc(OCc2ccccc2)ccc1-c1ccc(-c2cccnc2)c(C(F)F)c1
68 | 109 to 110 | COc1ccc2c(c1OC)CC(c1ccccc1)C=C2C#N (stereo not given)
69 | 164 to 166 | O=C(Cc1csc(-c2c(O)cccc2O)n1)NC1C(=O)N2C(C(=O)OC(c3ccccc3)c3ccccc3)=CCSC12 (stereo not given)
70 | 158 to 160 | CCC(=O)N(Cc1ccc(OC)cc1)c1cc(F)cc(-c2nnn[nH]2)c1
